The source of these data is patent EP1247803A2, “Indolinone compounds suitable for modulation of protein kinases” (Sugen, Inc., priority 1996, dated 1998).

The target of assay [1] is T1, FLK-1 receptor (Mus musculus, UniProt P35918).
T1 construct: expressed in transfected cells; host or cells: NIH3T3 C7#3
Put plainly: FLK-1 ELISA (kinase activity of the FLK-1 receptor in FLK-1/NIH3T3 cells, VEGF stimulated). It is filed as cell-based. The method, boiled down:
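FLK-1-expressing NIH3T3 C7#3 cells, starved overnight in 0.1% FBS medium, were treated with compounds at a 1:200 final dilution (0.5% DMSO) for 2 h at 37 °C, with VEGF stimulation. FLK-1 kinase activity was read by ELISA on anti-rabbit IgG plates using affinity-purified anti-FLK-1 antiserum.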
Background: In an ELISA, binding on a coated surface is turned into a signal by an enzyme label.

The target of assay [2] is PDGF-R (Homo sapiens, UniProt P09619). Put plainly: PDGF-R ELISA. It is filed as cell-based. The text has this: A PDGF-R ELISA is described in International Patent Publication No. WO 96/40116, published December 19, 1996 by Tang et al.
PDGF-R, sequence (P09619 33-1106, species assumed): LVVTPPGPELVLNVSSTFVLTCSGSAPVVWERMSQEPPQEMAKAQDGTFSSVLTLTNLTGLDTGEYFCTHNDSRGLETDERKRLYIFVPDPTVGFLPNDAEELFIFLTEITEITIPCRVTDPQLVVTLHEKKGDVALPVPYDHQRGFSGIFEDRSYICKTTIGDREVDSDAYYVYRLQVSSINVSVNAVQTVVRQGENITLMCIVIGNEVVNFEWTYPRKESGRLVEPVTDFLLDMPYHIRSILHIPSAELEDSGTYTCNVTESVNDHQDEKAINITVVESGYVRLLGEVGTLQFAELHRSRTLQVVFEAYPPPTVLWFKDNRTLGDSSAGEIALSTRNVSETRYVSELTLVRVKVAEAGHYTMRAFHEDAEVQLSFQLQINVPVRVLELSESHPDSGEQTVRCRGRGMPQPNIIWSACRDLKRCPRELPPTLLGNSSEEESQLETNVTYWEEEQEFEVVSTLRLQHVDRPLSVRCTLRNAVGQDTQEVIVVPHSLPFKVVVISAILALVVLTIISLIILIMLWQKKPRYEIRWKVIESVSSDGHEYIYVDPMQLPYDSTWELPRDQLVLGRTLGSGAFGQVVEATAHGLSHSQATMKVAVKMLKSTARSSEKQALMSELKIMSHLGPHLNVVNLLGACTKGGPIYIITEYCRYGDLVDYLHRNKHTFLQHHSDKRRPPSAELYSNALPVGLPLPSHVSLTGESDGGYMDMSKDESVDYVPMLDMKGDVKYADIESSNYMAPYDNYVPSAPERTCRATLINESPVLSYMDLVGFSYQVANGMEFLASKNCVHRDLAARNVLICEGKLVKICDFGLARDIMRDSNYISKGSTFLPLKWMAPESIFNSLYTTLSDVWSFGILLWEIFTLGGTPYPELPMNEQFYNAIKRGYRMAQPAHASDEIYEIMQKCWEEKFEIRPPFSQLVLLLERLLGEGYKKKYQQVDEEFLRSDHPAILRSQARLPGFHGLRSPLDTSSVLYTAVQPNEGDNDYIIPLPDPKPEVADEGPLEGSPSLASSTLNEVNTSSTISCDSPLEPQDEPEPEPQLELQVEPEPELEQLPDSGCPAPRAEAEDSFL
Assay [3] has as its system MET. The assay can be described thus: MET biochemical kinase assay. Details: species or system human; concentration or dose not given beside the values. Summed up:
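Colorimetric signal from an HRP-linked anti-phosphotyrosine antibody with TMB measures phosphate incorporated into immobilised MET. The receptor is pulled from lysates by a polyclonal antibody against its cytoplasmic domain, then reacts in ATP- and metal-containing buffer with test compound.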

Molecules are shown by their SMILES.

T1 sequence (P35918 20-1345): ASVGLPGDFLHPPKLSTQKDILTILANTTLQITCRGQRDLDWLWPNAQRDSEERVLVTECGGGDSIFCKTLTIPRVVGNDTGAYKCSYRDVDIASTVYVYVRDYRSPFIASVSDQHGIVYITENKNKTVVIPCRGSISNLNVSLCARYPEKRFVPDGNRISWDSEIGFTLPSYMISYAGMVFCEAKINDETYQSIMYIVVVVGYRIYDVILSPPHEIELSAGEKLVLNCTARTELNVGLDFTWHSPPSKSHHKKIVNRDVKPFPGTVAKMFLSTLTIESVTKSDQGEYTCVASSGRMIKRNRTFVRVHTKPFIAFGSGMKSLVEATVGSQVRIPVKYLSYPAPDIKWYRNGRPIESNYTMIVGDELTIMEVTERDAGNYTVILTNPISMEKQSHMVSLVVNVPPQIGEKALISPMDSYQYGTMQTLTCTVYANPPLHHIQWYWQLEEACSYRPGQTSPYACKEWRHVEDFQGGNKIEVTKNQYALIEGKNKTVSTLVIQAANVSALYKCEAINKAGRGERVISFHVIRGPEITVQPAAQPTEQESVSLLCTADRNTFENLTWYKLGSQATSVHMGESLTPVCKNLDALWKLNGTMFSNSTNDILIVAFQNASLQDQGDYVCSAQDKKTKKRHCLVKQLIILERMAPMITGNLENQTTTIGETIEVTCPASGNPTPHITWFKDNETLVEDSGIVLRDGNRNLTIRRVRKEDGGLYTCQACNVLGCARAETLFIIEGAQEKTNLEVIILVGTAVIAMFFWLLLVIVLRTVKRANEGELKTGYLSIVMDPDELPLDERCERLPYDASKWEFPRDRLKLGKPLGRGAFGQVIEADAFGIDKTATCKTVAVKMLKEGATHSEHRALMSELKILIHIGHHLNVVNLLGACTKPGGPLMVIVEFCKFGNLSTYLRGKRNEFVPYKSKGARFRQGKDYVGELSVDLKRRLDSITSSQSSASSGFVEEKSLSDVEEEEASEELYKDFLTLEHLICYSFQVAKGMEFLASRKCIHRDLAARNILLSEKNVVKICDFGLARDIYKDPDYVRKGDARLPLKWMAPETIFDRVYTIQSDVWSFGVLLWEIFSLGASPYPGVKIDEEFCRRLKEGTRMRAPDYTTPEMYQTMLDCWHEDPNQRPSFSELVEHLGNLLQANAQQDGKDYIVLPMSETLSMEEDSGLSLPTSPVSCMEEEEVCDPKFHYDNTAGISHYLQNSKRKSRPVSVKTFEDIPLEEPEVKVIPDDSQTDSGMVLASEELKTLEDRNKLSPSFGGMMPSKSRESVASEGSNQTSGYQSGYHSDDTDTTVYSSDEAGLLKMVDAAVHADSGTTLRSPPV

`COc1cccc(C=C2C(=O)Nc3ccc(S(=O)(=O)Nc4ccc(C(F)(F)F)cc4)cc32)c1OC` [10727/E11]: the “Fik Kinase %Inhibition” value in assay [1] came to 37.3%. In assay [2], the “PDGF Kinase %Inhibition” value is listed as 7.9%. The “Met Kinase % Inhibition” value in assay [3] was -5.4%.
As to `Cc1c(Br)ccc2c1C(=Cc1cc(C(F)(F)F)ccc1F)C(=O)N2` [10728/C08], the “Fik Kinase %Inhibition” value in assay [1] was -2.2%. For the same molecule, the “PDGF Kinase %Inhibition” value in assay [2] is 9.4%. Further, in assay [3], the “Met Kinase % Inhibition” value was 25.5%.
In the case of `O=C1Nc2ccc(CCCl)cc2C1=Cc1coc2ccccc2c1=O` [10727/G07], the “Fik Kinase %Inhibition” value in assay [1] is 7.2%. Further, in assay [2], the “PDGF Kinase %Inhibition” value is listed as -24.1%. In addition, the “Met Kinase % Inhibition” value in assay [3] was found to be 29.6%.
Taken in the same sequence, the figures for `O=C1Nc2ccc(CCCl)cc2C1=Cc1cc(O)ccc1O` [10727/G10] were -5.6%, 10.8% and 99.2%.
For `O=C1Nc2c(Br)cc(Br)cc2C1=Cc1cc(C(F)(F)F)ccc1F` [10728/A08] the same measures were -1.4%, 0.5% and 40.2%.
Taken in the same sequence, the figures for `O=C1Nc2ccc(CCCl)cc2C1=Cc1cc(Cl)cc(Br)c1O` [10727/G04] were 27.2%, -27.0% and 94.0%.
For the molecule `N#Cc1cccc(C=C2C(=O)Nc3ccc(CCCl)cc32)c1` [10727/G08], in assay [1], the “Fik Kinase %Inhibition” value is on record as 15.7%. Besides, the “PDGF Kinase %Inhibition” value in assay [2] is reported as -7.4%. For the same molecule, the “Met Kinase % Inhibition” value in assay [3] turned out to be 21.8%.
For `CNS(=O)(=O)c1ccc2c(c1)C(=Cc1ccc(N(C)C)cc1OC)C(=O)N2` [10728/D05] the same measures were 4.9%, 7.2% and 29.5%.
Turning to `COc1cccc(OC)c1C=C1C(=O)Nc2c(Br)cc(Br)cc21` [10728/A03], the “Fik Kinase %Inhibition” value in assay [1] is recorded as -7.3%. In addition, the “PDGF Kinase %Inhibition” value in assay [2] is on record as -7.9%. The “Met Kinase % Inhibition” value in assay [3] was 29.2%.
For `CNS(=O)(=O)c1ccc2c(c1)C(=Cc1cc(O)ccc1O)C(=O)N2` [10727/D10] the same measures were 11.4%, 9.4% and 79.9%.
Taken in the same sequence, the figures for `COc1ccc(OC)c(C=C2C(=O)Nc3ccc(Br)c(C)c32)c1` [10728/C02] were -32.1%, 42.3% and 15.5%.
On to `CNS(=O)(=O)c1ccc2c(c1)C(=Cc1ccc(C#N)cc1)C(=O)N2` [10727/D09], for which the “Fik Kinase %Inhibition” value in assay [1] is 8.2%. In addition, the “PDGF Kinase %Inhibition” value in assay [2] amounted to 7.2%. Besides, the “Met Kinase % Inhibition” value in assay [3] was 17.9%.
For `CNS(=O)(=O)c1ccc2c(c1)C(=Cc1cc3c(cc1Cl)OCO3)C(=O)N2` [10727/D06] the same measures were 13.1%, 10.8% and 24.4%.
Consider `COc1cc(C=C2C(=O)Nc3c(Br)cc(Br)cc32)cc2c1OCO2` [10728/A11], for which, in assay [1], the “Fik Kinase %Inhibition” value was -2.3%. In addition, in assay [2], the “PDGF Kinase %Inhibition” value was -9.3%. In addition, the “Met Kinase % Inhibition” value in assay [3] came to 58.8%.
`CNS(=O)(=O)c1ccc2c(c1)C(=Cc1ccc3c(c1)Cc1ccccc1-3)C(=O)N2` [10728/D06]: in assay [1], the “Fik Kinase %Inhibition” value came out at 10.4%. For the same molecule, the “PDGF Kinase %Inhibition” value in assay [2] is 5.8%. The “Met Kinase % Inhibition” value in assay [3] stood at 23.2%.
For `COc1cccc(C=C2C(=O)Nc3ccc(CCCl)cc32)c1OC` [10727/G11] the same measures were 6.9%, 15.9% and -0.8%.
In the case of `CCc1cc(CC)c(C=C2C(=O)Nc3ccc(S(=O)(=O)N4CCOCC4)cc32)[nH]1` [10727/F03], in assay [1], the “Fik Kinase %Inhibition” value turned out to be 8.9%. In addition, the “PDGF Kinase %Inhibition” value in assay [2] is -3.7%. In addition, the “Met Kinase % Inhibition” value in assay [3] worked out at 22.0%.
For `CNS(=O)(=O)c1ccc2c(c1)C(=Cc1cccc(C#N)c1)C(=O)N2` [10727/D08] the same measures were 14.1%, 5.0 ! % and 8.5%.
For `COc1ccc(OC)c(C=C2C(=O)Nc3ccc(I)cc32)c1` [10728/B02] the same measures were -11.1%, -0.4% and 61.2%.
Taken in the same sequence, the figures for `N#Cc1ccc(C=C2C(=O)Nc3ccc(CCCl)cc32)cc1` [10727/G09] were 5.7%, 10.8% and 18.8%.
Regarding `N#Cc1ccc(C=C2C(=O)Nc3ccc(S(=O)(=O)Nc4ccc(C(F)(F)F)cc4)cc32)cc1` [10727/E09], the “Fik Kinase %Inhibition” value in assay [1] is 9.3%. Moreover, the “PDGF Kinase %Inhibition” value in assay [2] is recorded as 15.9%. The “Met Kinase % Inhibition” value in assay [3] was 28.4%.
Taken in the same sequence, the figures for `COc1cc(C=C2C(=O)Nc3ccc(I)cc32)cc(OC)c1` [10728/B04] were -6.0%, 9.8% and 67.2%.
